Source: ChEMBL document CHEMBL1201862, “PubChem BioAssay data set” (2004)
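In this assay, cells in 96-well plates receive the compound at five concentrations for 48 hours. Endpoints are linearly interpolated between the surrounding concentrations. Here, GI50 denotes the concentration required for 50% inhibition of growth.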 Active and inactive are the calls of the source. No stated cut-off is given here; in the data, active = GI50 up to about 1.1 µM and inactive = higher.

Assays:
Assay in all cases: NCI anticancer screen, dose series, 48 h
[1] = system: 786-0
[2] = system: ACHN
[3] = system: BT-549
[4] = system: CCRF-CEM
[5] = system: DU-145
[6] = system: KM12
[7] = system: LOX IMVI
[8] = system: LXFL 529
[9] = system: M14
[10] = system: MCF7
[11] = system: OVCAR-4
[12] = system: OVCAR-8
[13] = system: PC-3
[14] = system: SF-268
[15] = system: SK-MEL-28
[16] = system: SK-OV-3
[17] = system: SN12C
[18] = system: SNB-78
[19] = system: SW-620
[20] = system: UACC-257

Measured: GI50

CC(C)Cn1cnc2c(Sc3c([N+](=O)[O-])ncn3C)nc(N)nc21
inactive: [1] > 61 µM | [2] > 63.8 µM | [3] 42.5 µM | [4] 38.6 µM | [5] 28.5 µM | [6] > 100 µM | [7] > 59.8 µM | [8] > 100 µM | [9] > 52.2 µM | [10] 27.6 µM | [11] 23.6 µM | [12] > 61.4 µM | [13] 26.1 µM | [14] > 100 µM | [15] > 60.7 µM | [16] > 100 µM | [17] > 64.6 µM | [18] > 100 µM | [19] > 61.5 µM | [20] > 49.3 µM

O=C(CO)C1CC2C=CC1C2 (stereo not given)
inactive: [1] > 100 µM | [2] > 100 µM | [4] > 100 µM | [6] > 100 µM | [7] > 100 µM | [8] > 100 µM | [9] > 100 µM | [11] > 100 µM | [12] > 100 µM | [14] > 100 µM | [15] > 100 µM | [16] > 100 µM | [17] > 100 µM | [18] > 100 µM | [19] > 100 µM | [20] > 100 µM

c1ccc2c(c1)OCCOCCOc1ccccc1OCCO2
inactive: [1] 86.9 µM | [2] 51.9 µM | [4] 34.4 µM | [6] 35.2 µM | [7] 51.9 µM | [8] 68.5 µM | [9] 44.9 µM | [11] 39.3 µM | [12] 78 µM | [14] > 100 µM | [15] > 100 µM | [16] > 100 µM | [17] 76 µM | [18] > 100 µM | [19] 26.9 µM | [20] 84.7 µM

Cc1cc(CS(=O)(=O)/C=C/c2ccccc2[N+](=O)[O-])c(CS(=O)(=O)/C=C/c2ccccc2[N+](=O)[O-])cc1C
inactive: [1] 12.5 µM | [2] 34.4 µM | [3] 7.41 µM | [4] 21.5 µM | [5] 56.2 µM | [6] 81.8 µM | [7] 24.3 µM | [8] > 100 µM | [9] > 69.8 µM | [10] 8.13 µM | [11] 7.98 µM | [12] 24.1 µM | [13] 42.4 µM | [14] 25.4 µM | [15] 68.7 µM | [16] 24 µM | [17] 52.6 µM | [18] 23 µM | [19] > 54.2 µM | [20] > 65 µM

COc1nc(NC2OCC(OC(C)=O)C(OC(C)=O)C2OC(C)=O)c(-c2csc(N)n2)c(=O)n1C (stereo not given)
inactive: [1] > 100 µM | [2] > 100 µM | [4] > 100 µM | [6] > 100 µM | [7] > 100 µM | [8] > 100 µM | [9] > 100 µM | [11] > 100 µM | [12] > 100 µM | [14] > 100 µM | [15] > 100 µM | [16] > 100 µM | [17] > 100 µM | [18] > 100 µM | [19] > 100 µM | [20] > 100 µM

CCN(CC)/C(=C\Cl)Nc1ccccn1.[O-][Cl+3]([O-])([O-])O
inactive: [1] > 100 µM | [2] > 100 µM | [4] > 100 µM | [6] > 100 µM | [7] > 100 µM | [8] > 100 µM | [9] > 100 µM | [11] > 100 µM | [12] > 100 µM | [14] > 100 µM | [15] > 100 µM | [16] > 100 µM | [17] > 100 µM | [18] > 100 µM | [19] > 100 µM | [20] > 100 µM

O=C1CC(c2ccccc2)NCN1 (stereo not given)
inactive: [1] > 100 µM | [2] > 100 µM | [4] > 100 µM | [6] > 100 µM | [7] > 100 µM | [8] > 100 µM | [9] > 100 µM | [11] > 100 µM | [12] > 100 µM | [14] > 100 µM | [15] > 100 µM | [16] > 100 µM | [17] > 100 µM | [18] > 100 µM | [19] > 100 µM | [20] > 100 µM
